In PubChem BioAssay (NCI) one finds TGI and GI50 data, which are given here for 22 compounds.

Test systems include RXF-631 renal; DMS 114 small cell lung; M19-MEL melanoma; DLD-1 colon; KM20L2 colon; DMS 273 small cell lung; SNB-78 CNS; HOP-18 NSCLC; MDA-N.
What all share (test): inhibition of tumour cell growth, NCI panel, 48 h

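These data come from cells grown in 96-well plates and exposed to compound for 48 hours at five concentrations. Here, GI50 denotes the concentration required for 50% inhibition of growth. TGI denotes the concentration required for complete inhibition of growth.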

With `CC(/C=C/C(=O)c1sc(-n2nc(-c3ccccc3)cc2-c2ccccc2)nc1C)=C\c1ccccc1`, the TGI with RXF-631 renal, in the assay with DMS 114 small cell lung, in the assay with M19-MEL melanoma, in the assay on DLD-1 colon, in the assay with KM20L2 colon and with DMS 273 small cell lung was over 100 µM in each case. The GI50 in the assay on DMS 273 small cell lung was over 100 µM.

On to `CN(C)c1ncnc2c1Cc1ccccc1C(=O)N2C`, for which the TGI in the assay with RXF-631 renal, with DMS 114 small cell lung, in the assay with M19-MEL melanoma, in the assay on DLD-1 colon, in the assay with KM20L2 colon and in the assay on DMS 273 small cell lung was over 100 µM in each case. Also, the TGI with SNB-78 CNS and in the assay with HOP-18 NSCLC was over 100 µM each time.

Take `CC1=C(C(=O)Nc2ccccc2C)C(c2ccc(C3C(C(=O)Nc4ccccc4C)=C(C)NC(C)=C3C(=O)Nc3ccccc3C)cc2)C(C(=O)Nc2ccccc2C)=C(C)N1`: the TGI with RXF-631 renal was 28.4 µM; in the assay on DMS 114 small cell lung, 14 µM; in the assay with M19-MEL melanoma, 12.3 µM; with MDA-N, 19.9 µM; in the assay on DLD-1 colon it was 5.66 µM; in the assay with KM20L2 colon, 12.9 µM. Further, the TGI with DMS 273 small cell lung stood at 11.4 µM; with SNB-78 CNS it was 16.7 µM.

`COc1ccc(/C=N/N=C(\N)NO)c(Cl)c1O`: the TGI was over 100 µM in the assay with DMS 114 small cell lung; 53.3 µM in the assay on M19-MEL melanoma; over 100 µM with DLD-1 colon; over 100 µM with SNB-78 CNS; 54.2 µM in the assay with HOP-18 NSCLC.

`CO/[N+]([O-])=C\C(=O)N/C=C/C(=O)O` showed a TGI with MDA-N of over 100 µM.

For the compound `C=CCCOC(=O)CO[N+](=O)[O-]`, the TGI with DMS 114 small cell lung, in the assay with M19-MEL melanoma, with DLD-1 colon, in the assay on KM20L2 colon and in the assay with DMS 273 small cell lung was over 100 µM each time.

As to `COc1cc(Br)c(CC2(C#N)c3ccccc3C3C(N2C(=O)c2ccccc2)C3(Cl)Cl)cc1OC` (stereo not given), the TGI in the assay on DMS 114 small cell lung, with DLD-1 colon, with KM20L2 colon, with DMS 273 small cell lung, with SNB-78 CNS and in the assay with HOP-18 NSCLC was over 65.5 µM each time.

`COc1cc2c3c(c4ccc(OC)c(OC)c4c2cc1OC)CN1CCC[C@@H]1C3` registered a TGI in the assay on MDA-N of 12.2 µM.

Turning to `CC(=O)[O-].CC(=O)[O-].O=C(N/N=C/c1cc(Cl)cc(Cl)c1O)c1ccncc1.[Ni+2]`, the TGI in the assay with KM20L2 colon was over 100 µM.

As for `COc1ccc(/C=C/C(=O)C(C)(C)CN2CCCCC2)cc1`, the TGI in the assay on DMS 114 small cell lung is 29.6 µM; in the assay with M19-MEL melanoma it was 33.8 µM; in the assay on DLD-1 colon, 36.4 µM; with KM20L2 colon, over 100 µM; with DMS 273 small cell lung it was 41.6 µM; with SNB-78 CNS it was 69 µM. The same compound came in with a TGI with HOP-18 NSCLC of 60.4 µM.

For `CCOC(=O)Cc1nc2ccccc2s1`, the TGI was determined as 33.8 µM with RXF-631 renal; 40.6 µM in the assay with M19-MEL melanoma; 33.5 µM in the assay with DLD-1 colon; 69.1 µM in the assay on KM20L2 colon; 55.4 µM with DMS 273 small cell lung; 33 µM in the assay on SNB-78 CNS. Besides, in the assay with HOP-18 NSCLC, the TGI amounted to 74.3 µM.

In the case of `C[N+](C)(C)CC(=O)N/N=C(\CCC(=O)NCCc1ccccc1)CC(=O)c1ccccc1`, the TGI in the assay with DMS 114 small cell lung, in the assay on M19-MEL melanoma, with DLD-1 colon, with KM20L2 colon, with DMS 273 small cell lung and in the assay with SNB-78 CNS was over 100 µM throughout. This compound displayed a TGI in the assay with HOP-18 NSCLC of over 100 µM.

For `N#CC(/C(=N\NC(=O)c1ccncc1)C(=O)Nc1ccc([N+](=O)[O-])cc1[N+](=O)[O-])c1nc(-c2ccc(Br)cc2)cs1` (stereo not given), the TGI in the assay with RXF-631 renal, with DMS 114 small cell lung, in the assay with M19-MEL melanoma, with DLD-1 colon, in the assay on KM20L2 colon and in the assay on SNB-78 CNS was over 100 µM in each case.

With `c1ccc(N=c2snc3scc(-c4ccccc4)n23)cc1`, the TGI in the assay with RXF-631 renal was over 100 µM; with DMS 114 small cell lung it was 88.8 µM; in the assay on M19-MEL melanoma, over 100 µM; in the assay with DLD-1 colon it was over 100 µM; with DMS 273 small cell lung, over 100 µM; with SNB-78 CNS, over 100 µM. Besides, the TGI with HOP-18 NSCLC was over 100 µM.

As to `CCSC(SCC)c1cc2c(cc1Br)OCO2`, the TGI is 73.7 µM with RXF-631 renal; 50.4 µM with DMS 114 small cell lung; over 100 µM in the assay with M19-MEL melanoma; over 100 µM with DLD-1 colon; 64.7 µM in the assay on KM20L2 colon; 20.1 µM in the assay on DMS 273 small cell lung. For the same compound, in the assay with SNB-78 CNS, the TGI was over 100 µM.

Regarding `CSc1nc(NC2OCC(OC(C)=O)C(OC(C)=O)C2OC(C)=O)c(N=C(C)C(C)=O)c(=O)n1C` (stereo not given), the TGI in the assay with RXF-631 renal, with DMS 114 small cell lung, in the assay on M19-MEL melanoma, in the assay on DLD-1 colon, in the assay on KM20L2 colon and in the assay on DMS 273 small cell lung was over 100 µM throughout. Moreover, the TGI in the assay on SNB-78 CNS and with HOP-18 NSCLC was over 100 µM each time.

The compound `NC(=O)/C(=C\c1ccncc1)c1cccc2ccccc12` returned a TGI in the assay on MDA-N of over 100 µM.

For the compound `Cc1ccc2[nH]c3c(C)c4c(c(C)c3c2c1)CN(C)C=C4`, the TGI in the assay with RXF-631 renal is 8.75 µM; with DMS 114 small cell lung, 2.1 µM; in the assay on DLD-1 colon, 13.1 µM; in the assay with KM20L2 colon it was 11.8 µM; with DMS 273 small cell lung, 3.09 µM; in the assay on SNB-78 CNS it was 3.41 µM. Besides, the TGI in the assay on HOP-18 NSCLC was determined as 26.9 µM. Also, in the assay on DMS 114 small cell lung, the GI50 was 0.437 µM.

With `Cc1c(-c2ccccc2)c(=O)oc2ccc(Cl)cc12`, the TGI with DMS 114 small cell lung, in the assay with M19-MEL melanoma, in the assay with DLD-1 colon, in the assay on DMS 273 small cell lung, in the assay with SNB-78 CNS and in the assay on HOP-18 NSCLC was over 100 µM in each case.

Consider `CC1CN(c2ccc(Cl)cc2)CC(C)(C)OC(=O)O1` (stereo not given), for which the TGI in the assay on RXF-631 renal, with DMS 114 small cell lung, with M19-MEL melanoma, with DLD-1 colon, with KM20L2 colon and in the assay with DMS 273 small cell lung was over 100 µM each time. The same compound displayed a TGI in the assay on SNB-78 CNS of over 100 µM.

Regarding `CC1=CC(=O)CC(C)(C)C1(O)/C=C/C(C)=C/C(=O)O` (stereo not given), the TGI in the assay with MDA-N was over 100 µM.

As to `CNC1C(O)C(OC2C(N)CC(N)C(OC3OC(CN)=CCC3N)C2O)OCC1(C)O` (stereo not given), in the assay on MDA-N, the TGI is over 100 µM.
